The record followed here is patent publication US10793563B2, “GCN2 inhibitors and uses thereof” (Merck Patent GmbH, priority 2018, dated 2020).

The IC50 is the concentration at which inhibition is half-maximal. A higher IC50 goes with weaker potency in that assay.

The target of the first experiment is GCN2 kinase (Homo sapiens (Human), UniProt Q9P2K8). Description: GCN2 Enzyme Inhibition Assay (Transcreener ADP2 fluorescence polarization). The experiment is classed as biochemical. Particulars: 280 μM ATP, 200 μM (RS)7 peptide, 4 nM GCN2, 25° C. The procedure: Compounds were screened for their ability to inhibit GCN2 kinase activity using a Transcreener® ADP^2 fluorescence polarization assay that detects ADP levels (BellBrook Labs, WI). Assays were carried out in a buffer consisting of 25 mM Tris-HCl (pH 7.5), 50 mM NaCl, 10 mM MgCl2 and 1 mM DTT. […] Assays were carried out at 25° C. in the presence of a (typical) final concentration of 4 nM GCN2 kinase. An assay buffer containing GCN2 kinase and (RS)7 was prepared. […] The plate was incubated for 10 minutes at 25° C. prior to the addition of 4.7 μL of ATP stock buffer to initiate the enzyme reaction. The reaction was allowed to proceed for 1 hour at 25° C., prior to the addition of 10 μL detection buffer (consisting of appropriate concentrations of ADP^2 antibody and ADP Alexa633 tracer in 1× stop and detect buffer as supplied by BellBrook Labs). […] Percentage inhibition of enzyme activity was then calculated at each compound dose. IC50 and Ki(app) (using known assay and kinetic parameters) values were calculated from percentage inhibition data using a non-linear, tight-binding algorithm. All data analysis was undertaken using the Screener® software package (Genedata, Switzerland).
GCN2 kinase, sequence (Q9P2K8 whole entry): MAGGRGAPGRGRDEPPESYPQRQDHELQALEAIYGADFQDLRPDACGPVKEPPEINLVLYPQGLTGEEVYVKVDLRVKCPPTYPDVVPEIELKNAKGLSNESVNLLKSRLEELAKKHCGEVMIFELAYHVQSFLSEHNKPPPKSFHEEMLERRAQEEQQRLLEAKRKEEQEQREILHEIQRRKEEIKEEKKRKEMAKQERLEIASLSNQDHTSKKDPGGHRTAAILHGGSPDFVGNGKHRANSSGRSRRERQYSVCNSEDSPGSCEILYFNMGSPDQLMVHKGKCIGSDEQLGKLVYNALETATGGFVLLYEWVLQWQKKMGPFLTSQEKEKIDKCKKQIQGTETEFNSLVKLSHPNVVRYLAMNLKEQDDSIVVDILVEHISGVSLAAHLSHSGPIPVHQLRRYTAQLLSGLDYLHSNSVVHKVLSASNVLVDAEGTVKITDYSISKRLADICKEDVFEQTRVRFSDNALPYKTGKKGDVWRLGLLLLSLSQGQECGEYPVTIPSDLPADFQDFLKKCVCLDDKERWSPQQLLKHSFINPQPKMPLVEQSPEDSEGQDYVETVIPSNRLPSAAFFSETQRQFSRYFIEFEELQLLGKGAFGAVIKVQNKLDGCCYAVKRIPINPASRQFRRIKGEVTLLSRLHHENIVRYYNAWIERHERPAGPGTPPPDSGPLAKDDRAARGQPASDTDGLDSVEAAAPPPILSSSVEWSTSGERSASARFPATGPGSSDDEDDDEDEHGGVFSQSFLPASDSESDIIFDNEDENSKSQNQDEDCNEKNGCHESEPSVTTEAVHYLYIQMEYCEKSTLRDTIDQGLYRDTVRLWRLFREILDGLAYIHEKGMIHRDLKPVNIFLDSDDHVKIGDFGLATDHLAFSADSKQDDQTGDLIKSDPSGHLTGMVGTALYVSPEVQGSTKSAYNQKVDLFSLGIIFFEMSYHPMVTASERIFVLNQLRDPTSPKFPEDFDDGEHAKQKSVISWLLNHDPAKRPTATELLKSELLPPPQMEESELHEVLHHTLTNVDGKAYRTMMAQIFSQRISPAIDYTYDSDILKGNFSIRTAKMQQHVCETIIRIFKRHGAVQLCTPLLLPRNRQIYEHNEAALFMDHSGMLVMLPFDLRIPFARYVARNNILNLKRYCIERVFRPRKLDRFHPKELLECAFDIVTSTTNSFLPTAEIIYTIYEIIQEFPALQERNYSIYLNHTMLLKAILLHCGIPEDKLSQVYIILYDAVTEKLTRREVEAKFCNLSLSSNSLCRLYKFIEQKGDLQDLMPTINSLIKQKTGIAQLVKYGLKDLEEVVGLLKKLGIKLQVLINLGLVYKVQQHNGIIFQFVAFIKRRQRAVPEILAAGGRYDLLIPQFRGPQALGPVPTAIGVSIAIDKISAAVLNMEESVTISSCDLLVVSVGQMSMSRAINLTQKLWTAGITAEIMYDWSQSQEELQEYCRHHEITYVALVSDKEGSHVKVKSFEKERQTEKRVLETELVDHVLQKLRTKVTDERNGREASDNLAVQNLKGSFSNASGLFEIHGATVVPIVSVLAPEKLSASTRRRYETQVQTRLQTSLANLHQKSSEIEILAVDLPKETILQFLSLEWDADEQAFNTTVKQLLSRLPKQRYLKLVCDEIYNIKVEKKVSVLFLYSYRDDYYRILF
A general note: Polarisation of emitted light reports the rotation of a fluorescent probe.
The compound `CC(C)(C)OC(=O)C1(O)CCCN(c2ccnc(-c3cnc4ccc(C(F)(F)F)cn34)n2)C1` (centres unmarked) [I-212, tert-butyl 3-hydroxy-1-(2-(6-(trifluoromethyl)imidazo[1,2-a]pyridin-3-yl)pyrimidin-4-yl)piperidine-3-carboxylate] yielded a half-inhibitory concentration (IC50) of 100 to 1000 nM.
Same read-out and setting: in the case of `O=C([C@H]1C[C@H]1F)N1CCN(c2ccnc(-c3cnc4ccc(C(F)(F)F)cn34)n2)CC1c1cn[nH]c1` (stereo in doubt) [I-489, (2-(1H-pyrazol-4-yl)-4-(2-(6-(trifluoromethyl)imidazo[1,2-a]pyridin-3-yl)pyrimidin-4-yl)piperazin-1-yl)((1R,2R)-2-fluorocyclopropyl)methanone] it was 10 to 100 nM.
Still for that read-out and setting: in the case of `CC(O)C(=O)N[C@H]1C[C@H](O)CN(c2ccnc(-c3cnc4ccc(C(F)(F)F)cn34)n2)C1` (stereo partly drawn) [I-254, 2-hydroxy-N-((3S,5S)-5-hydroxy-1-(2-(6-(trifluoromethyl)imidazo[1,2-a]pyridin-3-yl)pyrimidin-4-yl)piperidin-3-yl)propanamide] it was 100 to 1000 nM; in that of `C[C@H]1[C@H](c2cn[nH]c2)NCCN1c1ccnc(-c2cnc3ccc(C(F)(F)F)cn23)n1` [I-535, 3-(4-((2S,3 S)-2-methyl-3-(1H-pyrazol-4-yl)piperazin-1-yl)pyrimidin-2-yl)-6-(trifluoromethyl)imidazo[1,2-a]pyridine], 100 to 1000 nM.
On the same count and under the same terms, in the case of `C[C@@H]1C[C@H](N=S(C)(C)=O)CN(c2ccnc(-c3cnc4ccc(N5CC(F)C5)cn34)n2)C1` [I-330, (((3 S,5R)-1-(2-(6-(3-fluoroazetidin-1-yl)imidazo[1,2-a]pyridin-3-yl)pyrimidin-4-yl)-5-methylpiperidin-3-yl)imino)dimethyl-λ6-sulfanone] it was 100 to 1000 nM.
`O=C(N1CCN(c2ccnc(-c3cnc4ccc(C(F)(F)F)cn34)n2)CC1c1cn[nH]c1)C1(C(F)F)CC1` (centres unmarked) [I-488, (2-(1H-pyrazol-4-yl)-4-(2-(6-(trifluoromethyl)imidazo[1,2-a]pyridin-3-yl)pyrimidin-4-yl)piperazin-1-yl)(1-(difluoromethyl)cyclopropyl)methanone] displayed an IC50 of 10 to 100 nM.
`COC(=O)C1CC12CCCN(c1ccnc(-c3cnc4ccc(Cl)cn34)n1)C2` (centres unmarked) [I-133, methyl 5-(2-(6-chloroimidazo[1,2-a]pyridin-3-yl)pyrimidin-4-yl)-5-azaspiro[2.5]octane-1-carboxylate] showed an IC50 of 100 to 1000 nM.
On the same count and under the same terms, in the case of `CC1(C)CN(c2ccnc(-c3cnc4ccc(C(F)(F)F)cn34)n2)CCN1` [I-334, 3-(4-(3,3-dimethylpiperazin-1-yl)pyrimidin-2-yl)-6-(trifluoromethyl)imidazo[1,2-a]pyridine] it was 100 to 1000 nM.
Regarding `O=C(O)C1CC(F)CN(c2ccnc(-c3cnc4ccc(C(F)(F)F)cn34)n2)C1` (centres unmarked) [I-206, 5-fluoro-1-[2-(6-trifluoromethyl-imidazo[1,2-a]pyridin-3-yl)-pyrimidin-4-yl]-piperidine-3-carboxylic acid], the 50% inhibitory concentration (IC50) fell in the range of 10 to 100 nM.
On the same count and under the same terms, with `Cc1cnc(N2CCC[C@H](C(N)=O)C2)nc1-c1cnc2ccc(Cl)cn12` [I-174, (S)-1-(4-(6-chloroimidazo[1,2-a]pyridin-3-yl)-5-methylpyrimidin-2-yl)piperidine-3-carboxamide] the figure was 10 to 100 nM.
The same measure, in the same setting: in the case of `NC(=O)C1CN(c2ccnc(-c3cnc4ccc(C(F)(F)F)cn34)n2)C1` [I-228, 1-(2-(6-(trifluoromethyl)imidazo[1,2-a]pyridin-3-yl)pyrimidin-4-yl)azetidine-3-carboxamide] it was 100 to 1000 nM.
Turning to `O=C1CCC[C@@H](C(=O)N2CCN(c3ccnc(-c4cnc5ccc(C(F)(F)F)cn45)n3)C[C@@H]2c2cn[nH]c2)N1` [I-474, (S)-6-((S)-2-(1H-pyrazol-4-yl)-4-(2-(6-(trifluoromethyl)imidazo[1,2-a]pyridin-3-yl)pyrimidin-4-yl)piperazine-1-carbonyl)piperidin-2-one], the IC50 was in the range of 100 to 1000 nM.
Still for that read-out and setting: with `FC(F)(F)c1ccc2ncc(-c3ccnc(N4CCN(C[C@H]5CCCOC5)[C@@H](c5cn[nH]c5)C4)n3)n2c1` [I-542, 3-(2-((S)-3-(1H-pyrazol-4-yl)-4-(((R)-tetrahydro-2H-pyran-3-yl)methyl)piperazin-1-yl)pyrimidin-4-yl)-6-(trifluoromethyl)imidazo[1,2-a]pyridine] the figure was less than 10 nM.
In turn, `Cc1nonc1C(=O)N1CCN(c2ccnc(-c3cnc4ccc(C(F)(F)F)cn34)n2)CC1c1cn[nH]c1` (centres unmarked) [I-518, (2-(1H-pyrazol-4-yl)-4-(2-(6-(trifluoromethyl)imidazo[1,2-a]pyridin-3-yl)pyrimidin-4-yl)piperazin-1-yl)(4-methyl-1,2,5-oxadiazol-3-yl)methanone] displayed an IC50 of 10 to 100 nM.
`O=C(O)C1CN(c2ccnc(-c3cnc4ccc(C(F)(F)F)cn34)n2)CC(F)(F)C1` (centres unmarked) [I-205, 5,5-Difluoro-1-[2-(6-trifluoromethyl-imidazo[1,2-a]pyridin-3-yl)-pyrimidin-4-yl]-piperidine-3-carboxylic acid] returned a half-inhibitory concentration (IC50) of 10 to 100 nM.
On the same count and under the same terms, in the case of `C[C@H]1CN(c2nccc(-c3cnc4ccc(C(F)(F)F)cn34)n2)C[C@@H](c2nn[nH]n2)O1` [I-189, (2S,6S)-2-methyl-6-(2H-tetrazol-5-yl)-4-(4-(6-(trifluoromethyl)imidazo[1,2-a]pyridin-3-yl)pyrimidin-2-yl)morpholine] it was 10 to 100 nM; in that of `FC(F)(F)c1ccc2ncc(-c3nccc(N4CCN(CC5CC56CC6)C(c5cn[nH]c5)C4)n3)n2c1` (centres unmarked) [I-475, 3-(4-(3-(1H-pyrazol-4-yl)-4-(spiro[2.2]pentan-1-ylmethyl)piperazin-1-yl)pyrimidin-2-yl)-6-(trifluoromethyl)imidazo[1,2-a]pyridine], 10 to 100 nM; in that of `NC(=O)C1CN(c2ccnc(-c3cnc4ccc(Cl)cn34)n2)CCO1` (centres unmarked) [I-163, 4-(2-(6-chloroimidazo[1,2-a]pyridin-3-yl)pyrimidin-4-yl)morpholine-2-carboxamide], 10 to 100 nM.
Same read-out and setting: with `C[C@@H]1CN(c2ccnc(-c3cnc4ccc(C(F)(F)F)cn34)n2)C[C@H](C)N1C(=O)C1CC1(F)F` (stereo partly drawn) [I-438, (2,2-difluorocyclopropyl)(cis-2,6-dimethyl-4-(2-(6-(trifluoromethyl)imidazo[1,2-a]pyridin-3-yl)pyrimidin-4-yl)piperazin-1-yl)methanone] the figure was 10 to 100 nM.
Still for that read-out and setting: in the case of `NC(=O)[C@H]1CN(c2ccnc(-c3cnc4cc(F)c(Cl)cn34)n2)CCN1C1CC1` [I-425, (R)-4-(2-(6-chloro-7-fluoroimidazo[1,2-a]pyridin-3-yl)pyrimidin-4-yl)-1-cyclopropylpiperazine-2-carboxamide] it was 100 to 1000 nM.
`Cc1nnc(C)n1[C@H]1C[C@@H](C)CN(c2nccc(-c3cnc4ccc(C(F)(F)F)cn34)n2)C1` [I-466, 3-(2-((3S,5R)-3-(3,5-dimethyl-4H-1,2,4-triazol-4-yl)-5-methylpiperidin-1-yl)pyrimidin-4-yl)-6-(trifluoromethyl)imidazo[1,2-a]pyridine] yielded a half-inhibitory concentration (IC50) of 10 to 100 nM.
Still for that read-out and setting: with `Cc1nnc(C)n1[C@@H]1C[C@H](C)CN(c2nccc(-c3cnc4ccc(C(F)(F)F)cn34)n2)C1` [I-463, 3-(2-((3R,5S)-3-(3,5-dimethyl-4H-1,2,4-triazol-4-yl)-5-methylpiperidin-1-yl)pyrimidin-4-yl)-6-(trifluoromethyl)imidazo[1,2-a]pyridine] the figure was 10 to 100 nM.

The same experiment, now with this note: Ki(app); 280 μM ATP, 200 μM (RS)7 peptide, 4 nM GCN2, 25° C.
Consider `CS(C)(=O)=NC1CCCN(c2ccnc(-c3cnc4ccc(Cl)cn34)n2)C1` (centres unmarked) [I-30, ((1-(2-(6-Chloroimidazo[1,2-a]pyridin-3-yl)pyrimidin-4-yl)piperidin-3-yl)imino)dimethyl-λ^6-sulfanone], for which the Ki is 100 to 1000 nM.
Still for that read-out and setting: in the case of `O=C1OCC2CN(c3ccnc(-c4cnc5ccc(Cl)cn45)n3)CCN12` (centres unmarked) [I-99, 7-(2-{6-chloroimidazo[1,2-a]pyridin-3-yl}pyrimidin-4-yl)-hexahydro-1H-[1,3]oxazolo[3,4-a]pyrazin-3-one] it was 10 to 100 nM.
Still for that read-out and setting: with `O=C1NCC2CN(c3ccnc(-c4cnc5ccc(Cl)cn45)n3)CCN12` (centres unmarked) [I-97, 7-(2-{6-chloroimidazo[1,2-a]pyridin-3-yl}pyrimidin-4-yl)-octahydroimidazo[1,5-a]pyrazin-3-one] the figure was 10 to 100 nM; with `CS(=O)(=O)N1CCC2(CCCN2c2ccnc(-c3cnc4ccc(C(F)(F)F)cn34)n2)CC1` [I-7, 8-Methylsulfonyl-1-[2-[6-(trifluoromethyl)imidazo[1,2-a]pyridin-3-yl]pyrimidin-4-yl]-1,8-diazaspiro[4.5]decane], 100 to 1000 nM; with `C[C@@H]1CN(c2ccnc(-c3cnc4ccc(C(F)(F)F)cn34)n2)[C@H](C)[C@H](c2cn[nH]c2)N1` (stereo in doubt) [I-38, 3-[4-[2,5-dimethyl-3-(1H-pyrazol-4-yl)piperazin-1-yl]pyrimidin-2-yl]-6-(trifluoromethyl)imidazo[1,2-a]pyridine], 10 to 100 nM.
The same measure, in the same setting: in the case of `O=C1NCCC2CN(c3ccnc(-c4cnc5ccc(Cl)cn45)n3)CCN12` (centres unmarked) [I-96, 2-(2-{6-chloroimidazo[1,2-a]pyridin-3-yl}pyrimidin-4-yl)-octahydro-1H-pyrazino[1,2-c]pyrimidin-6-one] it was less than 10 nM; in that of `O=C1CCN(c2ccnc(-c3cnc4ccc(Cl)cn34)n2)CCN1` [I-26, 1-[2-(6-Chloroimidazo[1,2-a]pyridin-3-yl)pyrimidin-4-yl]-1,4-diazepan-5-one], 100 to 1000 nM.
